# Key:
# [1] = tested on: alcohol preferring rats; assay: Alcohol Preferring Rats, Study A: Chronic Administration (14 days); format: in vivo, rat
# Experimental: (§1) Adult male selectively-bred alcohol preferring rats were used in this study. The selectively bred alcohol preferring rats are widely used to study the suppressant effects of compounds on voluntary alcohol intake (Faren et al. 2000; Rezvani et al, 1990, 1991, 1992a, 1992b, 1999, 2000, 2002; 2003; Murphy et al, 1988; Overstreet et al., 1992, 1999; Li and McBride, 1995).
# (§2) The rats were housed individually under a constant room temperature of 22±1° C. and 12:12 light-dark cycle (7:00-19:00, dark). Animals were fed Agway Prolab Rat/Mouse/Hamster 3000 formula and water ad libitum.
# (§3) Alcohol intake was determined using a standard two-bottle choice method (Murphy et al. 1988; McBride et al. 1990; Rezvani et al. 1990, 1991, 1993, 1995, 1997, Rezvani et al., 2007a,b; Rezvani and Grady, 1994). Animals were first given free access to water in a graduated Richter tube for 1 day. Next, they were given access to only a solution of 10% (v/v) ethanol for 3 consecutive days. During this period the animals became accustomed to drinking from Richter tubes and to the taste and pharmacological effects of alcohol. Thereafter, the animals were given free access to both water and a solution of 10% alcohol for 4 consecutive weeks and throughout of the study. The animals continued to have free access to food. Water and alcohol intake were recorded at 6 and 24 hour.
# After establishment of a reliable baseline for alcohol, and water intake, the animals were randomly assigned to a treatment regimen. The animals were administered once a day, via gavage, either vehicle (0.5% methylcellulose) or compound of formula (I-A) (at 30 mg/kg) or naltrexone (at 20 mg/kg) for 14 consecutive days. A group of 6-7 animals was used for each treatment. Alcohol and water intake was recorded at 6 hrs and 24 hrs after administration.
# (§4) The results are presented as a means ±SEM. Alcohol intake (g/kg) was calculated by multiplying the volume of alcohol consumed in ml by 10% and 0.7893 (ethanol density)/body weight in kg. Alcohol preference, expressed as percentage was calculated as (volume of alcohol consumed in ml/total fluid intake in ml)×100 (Rezvani and Grady, 1994; Rezvani et al., 2007a). Statistical differences between drug-treated and control groups was determined by using ANOVA and Tukey Student's t test for multiple comparison.
# The results from Study A provide a measure of whether or not the animals develop tolerance to the suppressant effects of the test compound following a chronic treatment. In Tables 5-8 below, the abbreviation “(I-A)” stands for the compound of formula (I-A), the abbreviation “Naltx” stands for naltrexone, and the abbreviation “EtOH” stands for ethanol.
# [2] = tested on: alcohol preferring rats; assay: Alcohol Preferring Rats, Study B: Post-Deprivation Effect; format: in vivo, rat; details: for % EtOH / Alcohol: 45 min before re-exposure to alcohol after 72 hours deprivation
# Experimental: as §1, §2, §3
# Following Study A, the rats were maintained on alcohol for 15 days without drug. On day 16 post-gavage, rats were put on food and water only for 72 hours. On the next day, 45 min before re-exposure to alcohol, the rats were treated with vehicle (0.5% methylcellulose), naltrexone (at 20 mg/kg) or compound of formula (I-A) (at 30-mg/kg). Alcohol intake was then measured at 1, 3, 6 and 24 hr after exposure.
# as §4, with “means.” for “means ±SEM.”
# The results from Study B provide a measure of the effectiveness of the test compound to suppress post-deprivation-induced craving for alcohol.
# [3] = 30 mg/kg once a day, gavage, Day 1, 6 Hour Intake
# [4] = 30 mg/kg once a day, gavage, Day 1, 24 Hour Intake
# [5] = 30 mg/kg once a day, gavage, Day 2, 6 Hour Intake
# [6] = 30 mg/kg once a day, gavage, Day 2, 24 Hour Intake
# [7] = 30 mg/kg once a day, gavage, Day 3, 6 Hour Intake
# [8] = 30 mg/kg once a day, gavage, Day 3, 24 Hour Intake
# [9] = 30 mg/kg once a day, gavage, Day 4, 6 Hour Intake
# [10] = 30 mg/kg once a day, gavage, Day 4, 24 Hour Intake
# [11] = 30 mg/kg once a day, gavage, Day 5, 6 Hour Intake
# [12] = 30 mg/kg once a day, gavage, Day 5, 24 Hour Intake
# [13] = 30 mg/kg once a day, gavage, Day 6, 6 Hour Intake
# [14] = 30 mg/kg once a day, gavage, Day 6, 24 Hour Intake
# [15] = 30 mg/kg once a day, gavage, Day 7, 6 Hour Intake
# [16] = 30 mg/kg once a day, gavage, Day 7, 24 Hour Intake
# [17] = 30 mg/kg once a day, gavage, Day 8, 6 Hour Intake
# [18] = 30 mg/kg once a day, gavage, Day 8, 24 Hour Intake
# [19] = 30 mg/kg once a day, gavage, Day 9, 6 Hour Intake
# [20] = 30 mg/kg once a day, gavage, Day 9, 24 Hour Intake
# [21] = 30 mg/kg once a day, gavage, Day 10, 6 Hour Intake
# [22] = 30 mg/kg once a day, gavage, Day 10, 24 Hour Intake
# [23] = 30 mg/kg once a day, gavage, Day 11, 6 Hour Intake
# [24] = 30 mg/kg once a day, gavage, Day 11, 24 Hour Intake
# [25] = 30 mg/kg once a day, gavage, Day 12, 6 Hour Intake
# [26] = 30 mg/kg once a day, gavage, Day 12, 24 Hour Intake
# [27] = 30 mg/kg once a day, gavage, Day 13, 6 Hour Intake
# [28] = 30 mg/kg once a day, gavage, Day 13, 24 Hour Intake
# [29] = 30 mg/kg once a day, gavage, Day 14, 6 Hour Intake
# [30] = 30 mg/kg once a day, gavage, Day 14, 24 Hour Intake
smiles,measurement,setting,value
"Cc1cccc2cccc(CN3CCC4(CC3)C(=O)N(C[C@H](O)CN)CN4c3ccc(F)cc3)c12 [Cmpd (I-A), 3-(3-amino-2-(R)-hydroxy-propyl)-1-(4-fluoro-phenyl)-8-(8-methyl-naphthalen-1-ylmethyl)-1,3,8-triazaspiro[4.5]decan-4-one]",Alcohol Intake,[1]; [3],1.31 g/kg
same,Alcohol Preference,[1]; [3],62 % EtOH
same,Alcohol Intake,[1]; [4],4.04 g/kg
same,Alcohol Preference,[1]; [4],72 % EtOH
same,Alcohol Intake,[1]; [5],1.54 g/kg
same,Alcohol Preference,[1]; [5],48 % EtOH
same,Alcohol Intake,[1]; [6],3.71 g/kg
same,Alcohol Preference,[1]; [6],56 % EtOH
same,Alcohol Intake,[1]; [7],1.71 g/kg
same,Alcohol Preference,[1]; [7],53 % EtOH
same,Alcohol Intake,[1]; [8],3.39 g/kg
same,Alcohol Preference,[1]; [8],54 % EtOH
same,Alcohol Intake,[1]; [9],1.24 g/kg
same,Alcohol Preference,[1]; [9],52 % EtOH
same,Alcohol Intake,[1]; [10],2.68 g/kg
same,Alcohol Preference,[1]; [10],50 % EtOH
same,Alcohol Intake,[1]; [11],1.54 g/kg
same,Alcohol Preference,[1]; [11],39 % EtOH
same,Alcohol Intake,[1]; [12],2.97 g/kg
same,Alcohol Preference,[1]; [12],47 % EtOH
same,Alcohol Intake,[1]; [13],1.04 g/kg
same,Alcohol Preference,[1]; [13],60 % EtOH
same,Alcohol Intake,[1]; [14],2.99 g/kg
same,Alcohol Preference,[1]; [14],59 % EtOH
same,Alcohol Intake,[1]; [15],1.34 g/kg
same,Alcohol Preference,[1]; [15],65 % EtOH
same,Alcohol Intake,[1]; [16],3.60 g/kg
same,Alcohol Preference,[1]; [16],76 % EtOH
same,Alcohol Intake,[1]; [17],1.63 g/kg
same,Alcohol Preference,[1]; [17],61 % EtOH
same,Alcohol Intake,[1]; [18],3.97 g/kg
same,Alcohol Preference,[1]; [18],70 % EtOH
same,Alcohol Intake,[1]; [19],1.84 g/kg
same,Alcohol Preference,[1]; [19],67 % EtOH
same,Alcohol Intake,[1]; [20],3.78 g/kg
same,Alcohol Preference,[1]; [20],68 % EtOH
same,Alcohol Intake,[1]; [21],1.38 g/kg
same,Alcohol Preference,[1]; [21],72 % EtOH
same,Alcohol Intake,[1]; [22],3.00 g/kg
same,Alcohol Preference,[1]; [22],73 % EtOH
same,Alcohol Intake,[1]; [23],1.17 g/kg
same,Alcohol Preference,[1]; [23],67 % EtOH
same,Alcohol Intake,[1]; [24],2.86 g/kg
same,Alcohol Preference,[1]; [24],81 % EtOH
same,Alcohol Intake,[1]; [25],1.07 g/kg
same,Alcohol Preference,[1]; [25],51 % EtOH
same,Alcohol Intake,[1]; [26],3.03 g/kg
same,Alcohol Preference,[1]; [26],69 % EtOH
same,Alcohol Intake,[1]; [27],0.96 g/kg
same,Alcohol Preference,[1]; [27],45 % EtOH
same,Alcohol Intake,[1]; [28],2.67 g/kg
same,Alcohol Preference,[1]; [28],67 % EtOH
same,Alcohol Intake,[1]; [29],0.55 g/kg
same,Alcohol Preference,[1]; [29],28 % EtOH
same,Alcohol Intake,[1]; [30],1.91 g/kg
same,Alcohol Preference,[1]; [30],45 % EtOH
same,Alcohol Intake,"[1]; 30 mg/kg once a day, at 6 and 24 hours, over the course of 14 days",showed a decrease in alcohol intake
same,Tolerance to the alcohol reducing effects,"[1]; 30 mg/kg once a day, over the 14 days of administration",did not develop tolerance
same,% EtOH,"[2]; 30 mg/kg, 1 Hour Post Dosing",84%
same,Alcohol,"[2]; 30 mg/kg, 1 Hour Post Dosing",0.39 g/kg
same,% EtOH,"[2]; 30 mg/kg, 3 Hours Post Dosing",75%
same,Alcohol,"[2]; 30 mg/kg, 3 Hours Post Dosing",0.72 g/kg
same,% EtOH,"[2]; 30 mg/kg, 6 Hours Post Dosing",72%
same,Alcohol,"[2]; 30 mg/kg, 6 Hours Post Dosing",1.48 g/kg
same,% EtOH,"[2]; 30 mg/kg, 24 Hours Post Dosing",73%
same,Alcohol,"[2]; 30 mg/kg, 24 Hours Post Dosing",3.72 g/kg
same,"Alcohol intake and preference, post-deprivation","[2]; 30 mg/kg, at 1, 3, 6 and 24 hours post dosing",showed a decrease in alcohol intake and preference
"O=C1CC[C@@]2(O)[C@H]3Cc4ccc(O)c5c4[C@@]2(CCN3CC2CC2)[C@H]1O5 [Naltrexone, naltrexone, reference compound]",Alcohol Preference,"[1]; 20 mg/kg once a day, gavage, Day 1, 6 Hour Intake",64 % EtOH
same,Alcohol Preference,"[1]; 20 mg/kg once a day, gavage, Day 1, 24 Hour Intake",65 % EtOH
same,Alcohol Preference,"[1]; 20 mg/kg once a day, gavage, Day 2, 6 Hour Intake",67 % EtOH
same,Alcohol Preference,"[1]; 20 mg/kg once a day, gavage, Day 2, 24 Hour Intake",68 % EtOH
same,Alcohol Preference,"[1]; 20 mg/kg once a day, gavage, Day 3, 6 Hour Intake",70 % EtOH
same,Alcohol Preference,"[1]; 20 mg/kg once a day, gavage, Day 3, 24 Hour Intake",68 % EtOH
same,Alcohol Preference,"[1]; 20 mg/kg once a day, gavage, Day 4, 6 Hour Intake",80 % EtOH
same,Alcohol Preference,"[1]; 20 mg/kg once a day, gavage, Day 4, 24 Hour Intake",77 % EtOH
same,Alcohol Preference,"[1]; 20 mg/kg once a day, gavage, Day 5, 6 Hour Intake",81 % EtOH
same,Alcohol Preference,"[1]; 20 mg/kg once a day, gavage, Day 5, 24 Hour Intake",79 % EtOH
same,Alcohol Preference,"[1]; 20 mg/kg once a day, gavage, Day 6, 6 Hour Intake",86 % EtOH
same,Alcohol Preference,"[1]; 20 mg/kg once a day, gavage, Day 6, 24 Hour Intake",72 % EtOH
same,Alcohol Preference,"[1]; 20 mg/kg once a day, gavage, Day 7, 6 Hour Intake",88 % EtOH
same,Alcohol Preference,"[1]; 20 mg/kg once a day, gavage, Day 7, 24 Hour Intake",84 % EtOH
same,Alcohol Preference,"[1]; 20 mg/kg once a day, gavage, Day 8, 6 Hour Intake",88 % EtOH
same,Alcohol Preference,"[1]; 20 mg/kg once a day, gavage, Day 8, 24 Hour Intake",85 % EtOH
same,Alcohol Preference,"[1]; 20 mg/kg once a day, gavage, Day 9, 6 Hour Intake",89 % EtOH
same,Alcohol Preference,"[1]; 20 mg/kg once a day, gavage, Day 9, 24 Hour Intake",89 % EtOH
same,Alcohol Preference,"[1]; 20 mg/kg once a day, gavage, Day 10, 6 Hour Intake",91 % EtOH
same,Alcohol Preference,"[1]; 20 mg/kg once a day, gavage, Day 10, 24 Hour Intake",85 % EtOH
same,Alcohol Preference,"[1]; 20 mg/kg once a day, gavage, Day 11, 6 Hour Intake",99 % EtOH
same,Alcohol Preference,"[1]; 20 mg/kg once a day, gavage, Day 11, 24 Hour Intake",99 % EtOH
same,Alcohol Preference,"[1]; 20 mg/kg once a day, gavage, Day 12, 6 Hour Intake",95 % EtOH
same,Alcohol Preference,"[1]; 20 mg/kg once a day, gavage, Day 12, 24 Hour Intake",97 % EtOH
same,Alcohol Preference,"[1]; 20 mg/kg once a day, gavage, Day 13, 6 Hour Intake",90 % EtOH
same,Alcohol Preference,"[1]; 20 mg/kg once a day, gavage, Day 13, 24 Hour Intake",95 % EtOH
same,Alcohol Preference,"[1]; 20 mg/kg once a day, gavage, Day 14, 6 Hour Intake",92 % EtOH
same,Alcohol Preference,"[1]; 20 mg/kg once a day, gavage, Day 14, 24 Hour Intake",89 % EtOH
same,% EtOH,"[2]; 20 mg/kg, 1 Hour Post Dosing",95%
same,Alcohol,"[2]; 20 mg/kg, 1 Hour Post Dosing",0.48 g/kg
same,% EtOH,"[2]; 20 mg/kg, 3 Hours Post Dosing",94%
same,Alcohol,"[2]; 20 mg/kg, 3 Hours Post Dosing",1.15 g/kg
same,% EtOH,"[2]; 20 mg/kg, 6 Hours Post Dosing",87%
same,Alcohol,"[2]; 20 mg/kg, 6 Hours Post Dosing",2.35 g/kg
same,% EtOH,"[2]; 20 mg/kg, 24 Hours Post Dosing",87%
same,Alcohol,"[2]; 20 mg/kg, 24 Hours Post Dosing",6.47 g/kg

# — patent US20080200492A1, “METHODS FOR THE TREATMENT OF ALCOHOL ABUSE, ADDICTION AND DEPENDENCY” (priority 2006, published 2008)
